We go through one molecule from patent US9604981B2, “IP receptor agonist heterocyclic compounds” (Novartis AG, priority 2013, dated 2017).

pEC50: −log10 of the molar value.

The test addresses T1, IP receptor (Homo sapiens, UniProt P43119).
T1 construct: expressed in transfected cells; host or cells: CHO cells (CHO-IP)
The test can be described thus: cAMP accumulation in CHO cells stably expressing the IP receptor (AlphaScreen). It counts as cell-based. The conditions noted are these: 1 hour at room temperature. The procedure: Activity of compounds at the IP receptor (IP receptor) is assessed by measuring cAMP accumulation in CHO cells stably expressing the IP receptor (CHO-IP) using the PerkinElmer AlphaScreen assay. This technology measures the endogenous production of cAMP, in a non-radioactive luminescence proximity homogenous assay. A biological reaction occurs between streptavidin coated donor beads, biotinylated cAMP and anti-cAMP acceptor beads, bringing the donor and acceptor beads close enough together so that upon excitation a fluorescence signal is produced. On production of endogenous cAMP, competition between the biotinylated cAMP and cellular-derived cAMP causes a reduction in the fluorescent signal. The reduction in signal is proportional to the amount of cAMP being produced, thus it is possible to quantify the amount of cAMP being produced on stimulation with agonist.
Test and reference compounds are prepared at 100× [final] in 100% DMSO, and diluted 1:3 using a Biomek Fx (Beckman Coulter). This is followed by an intermediate dilution to give 5× [final] in assay buffer (HBSS containing 5 mM HEPES, 0.1% (w/v) BSA). […] The assay plate is then incubated at room temperature in the dark, for 60 minutes with gentle shaking, and read on the Envision plate reader (Perkin Elmer). […]
For orientation: Cyclic AMP is a second messenger, typically raised through Gs and lowered through Gi signalling.

T1 sequence (P43119 whole entry): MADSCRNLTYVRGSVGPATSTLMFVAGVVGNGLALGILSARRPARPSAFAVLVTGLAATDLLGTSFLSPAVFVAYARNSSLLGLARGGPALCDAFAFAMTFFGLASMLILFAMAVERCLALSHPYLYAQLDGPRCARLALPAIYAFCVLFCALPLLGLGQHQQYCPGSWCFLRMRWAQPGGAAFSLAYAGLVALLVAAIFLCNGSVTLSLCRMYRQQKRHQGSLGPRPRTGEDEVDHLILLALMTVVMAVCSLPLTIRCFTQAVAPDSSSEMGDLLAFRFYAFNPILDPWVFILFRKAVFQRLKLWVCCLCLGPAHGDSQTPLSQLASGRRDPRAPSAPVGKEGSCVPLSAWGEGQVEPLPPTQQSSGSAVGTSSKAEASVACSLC

On to `Cc1ccc(-c2cc3c(nc2-c2ccc(C)cc2)CCCN3CCCCCCC(=O)O)cc1` [Example 1, 7-(6,7-Di-p-tolyl-3,4-dihydro-1,5-naphthyridin-1(2H)-yl)heptanoic acid], for which the pEC50 was 9.34.

A word on the pEC50: it is −log10 of the EC50, conventionally taken in molar units. The low end stands for a high EC50, the high end for a low EC50.
